Experimental data published in US9919034B2, “Methods of treating and prophylactically protecting mammalian patients infected by viruses classified in Baltimore group V” (priority 2014, dated 2018).

System: Rabies virus
Assay type: cell-based

ranpirnase
activity against rabies (SI, FIG. 1): extraordinarily active
